Test results from patent US10517961B2, “Drug formulation based on particulates comprising polysaccharide-vitamin conjugate” (ZY Therapeutics, Inc., priority 2015, dated 2019).

System: human non-small lung cancer cells
Experiment: In vitro cytotoxicity
Type: cell-based
Conditions: 72 hrs, cell survival ratio

For `CC(=O)O[C@H]1C(=O)[C@@]2(C)[C@H]([C@H](OC(=O)c3ccccc3)[C@]3(O)C[C@H](OC(=O)[C@H](O)[C@@H](NC(=O)c4ccccc4)c4ccccc4)C(C)=C1C3(C)C)[C@]1(OC(C)=O)CO[C@@H]1C[C@@H]2O` [paclitaxel], the IC50 was about 10 nM.
